# According to US10202406B2, “Boron cluster compounds and uses thereof” (priority 2011, dated 2019):
# “Also recorded” adds a separate entry of the source.
# Assays:
# mice [1] = experiment: Motor deficit testing, inverted screen test after injection; conditions: sensory block (hot plate) versus motor block (inverted screen test)
# Experimental: Motor function was tested by observing the ability of the mice to walk hanging upside down from a screen, termed the inverted screen test.
# mice [2] = experiment: Hot plate paw withdrawal latency after injection into a hind limb near the sciatic nerve; format: in vivo; conditions: 50 microliters of 10 mM injected into hind limb near sciatic nerve, 55° C. hot plate, about 30 min
# Experimental: The test drugs, all at a volume of 50 microliters and a concentration of 10 mM, were injected into a hind limb near the sciatic nerve. The time it takes for the animals to withdraw the foot of the injected limb from touching a 55° C. hot plate is measured in seconds. This time is termed the paw withdrawal latency and is measured over about a 30 min time period. Data are expressed as means±standard error of the mean and n equals the number of animals used in FIG. 5(a)-(d).
# [3] = target: T1, Nav1.2 voltage gated sodium channels (Homo sapiens, UniProt Q99250); experiment: Two electrode voltage clamp electrophysiology of voltage gated sodium channels expressed in Xenopus oocytes; format: cell-based; conditions: 0.3 mM in superfusate for two minutes then washed out; holding potential -50 mV; Nav1.2 in Xenopus oocytes
# T1 construct: expressed in transfected cells; host or cells: Xenopus oocytes
# T1 sequence (Q99250 whole entry): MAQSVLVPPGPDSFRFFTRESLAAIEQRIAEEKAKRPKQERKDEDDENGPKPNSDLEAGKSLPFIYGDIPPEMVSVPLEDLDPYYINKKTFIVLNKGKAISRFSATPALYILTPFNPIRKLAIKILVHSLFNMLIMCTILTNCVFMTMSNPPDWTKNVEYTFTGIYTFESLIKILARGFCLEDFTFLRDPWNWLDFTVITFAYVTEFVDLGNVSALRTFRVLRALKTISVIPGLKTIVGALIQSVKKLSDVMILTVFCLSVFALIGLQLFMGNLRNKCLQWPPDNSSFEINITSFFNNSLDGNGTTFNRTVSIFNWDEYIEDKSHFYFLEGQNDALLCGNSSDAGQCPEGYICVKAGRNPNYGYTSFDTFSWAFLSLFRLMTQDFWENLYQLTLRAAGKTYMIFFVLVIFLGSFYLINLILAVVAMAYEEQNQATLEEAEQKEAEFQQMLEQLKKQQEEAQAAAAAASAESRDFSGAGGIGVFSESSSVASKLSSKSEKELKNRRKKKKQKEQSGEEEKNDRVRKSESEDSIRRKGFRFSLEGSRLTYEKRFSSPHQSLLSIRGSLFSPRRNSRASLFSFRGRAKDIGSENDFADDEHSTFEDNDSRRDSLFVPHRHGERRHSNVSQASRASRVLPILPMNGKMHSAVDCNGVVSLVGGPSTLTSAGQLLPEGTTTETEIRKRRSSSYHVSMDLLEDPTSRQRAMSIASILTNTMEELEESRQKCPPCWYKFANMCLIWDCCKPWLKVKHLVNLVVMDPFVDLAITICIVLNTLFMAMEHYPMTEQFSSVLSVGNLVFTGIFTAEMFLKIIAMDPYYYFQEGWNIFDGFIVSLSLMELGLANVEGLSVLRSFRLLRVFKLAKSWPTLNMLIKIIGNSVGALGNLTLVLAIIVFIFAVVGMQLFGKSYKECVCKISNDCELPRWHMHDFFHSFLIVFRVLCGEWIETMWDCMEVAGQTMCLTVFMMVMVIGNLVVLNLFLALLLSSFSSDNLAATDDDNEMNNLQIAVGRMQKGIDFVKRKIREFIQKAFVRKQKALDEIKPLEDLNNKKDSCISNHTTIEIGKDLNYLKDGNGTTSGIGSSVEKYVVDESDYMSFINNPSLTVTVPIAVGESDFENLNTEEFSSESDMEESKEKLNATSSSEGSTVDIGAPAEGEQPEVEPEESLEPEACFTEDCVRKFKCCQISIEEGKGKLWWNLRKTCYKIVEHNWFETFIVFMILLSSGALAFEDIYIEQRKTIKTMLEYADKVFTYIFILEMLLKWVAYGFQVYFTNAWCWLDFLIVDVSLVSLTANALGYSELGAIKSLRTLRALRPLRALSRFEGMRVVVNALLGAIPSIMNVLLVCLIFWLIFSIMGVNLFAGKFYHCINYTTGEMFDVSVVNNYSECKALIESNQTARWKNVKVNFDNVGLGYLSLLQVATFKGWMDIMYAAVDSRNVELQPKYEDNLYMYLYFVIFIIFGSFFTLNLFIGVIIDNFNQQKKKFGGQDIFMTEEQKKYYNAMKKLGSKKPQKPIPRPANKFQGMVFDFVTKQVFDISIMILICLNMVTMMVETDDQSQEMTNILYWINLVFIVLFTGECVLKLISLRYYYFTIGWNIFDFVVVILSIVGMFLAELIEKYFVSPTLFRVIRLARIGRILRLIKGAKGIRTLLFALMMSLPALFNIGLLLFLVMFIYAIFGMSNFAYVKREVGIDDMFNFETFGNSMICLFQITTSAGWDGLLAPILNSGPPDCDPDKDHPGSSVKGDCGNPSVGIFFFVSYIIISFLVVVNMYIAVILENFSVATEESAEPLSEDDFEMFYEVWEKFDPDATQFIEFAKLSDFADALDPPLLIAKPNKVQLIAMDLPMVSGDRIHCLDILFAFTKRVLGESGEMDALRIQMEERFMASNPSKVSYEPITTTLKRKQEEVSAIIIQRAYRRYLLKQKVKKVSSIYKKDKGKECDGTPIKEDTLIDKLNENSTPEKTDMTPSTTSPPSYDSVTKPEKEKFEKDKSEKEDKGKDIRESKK
# Experimental: Nav1.2 voltage gated sodium channels were expressed in Xenopus oocytes and standard two electrode voltage clamp techniques were used to measure ionic currents through the channels after depolarizations from a holding potential of −50 mV. The test drugs, all at a concentration of 0.3 mM, were added to the superfusate for two minutes as indicated by the black bars and then washed out. […] Data are expressed as means±standard error of the mean and n equals the number of cells used in FIG. 4 (a)-(d).
Compound,selectivity of block of sensory nerves over motor nerves (mice [1]),analgesia / sensory block (paw withdrawal latency) (mice [2]),block of voltage gated sodium channels (ionic currents) [3]
"3-Diethylaminoacetamido-1,2-closo-carborane [o-carborane lidocaine]",selectively blocked sensory nerves over motor nerves; also recorded: selective block of sensory nerves over motor nerves,provide analgesia,block voltage gated sodium channels in a reversible manner
"CCN(CC)CC(=O)Nc1c(C)cccc1C [lidocaine, reference compound]",–,provide analgesia,block voltage gated sodium channels in a reversible manner
"9-Diethylaminoacetamido-1,7-closo-carborane [m-carborane lidocaine]",–,did not provide analgesia; also recorded: neither motor nor sensory block,block voltage gated sodium channels in a reversible manner
"2-Diethylaminoacetamido-1,12-closo-carborane [p-carborane lidocaine]",selectively blocked sensory nerves over motor nerves; also recorded: selective block of sensory nerves over motor nerves,provide analgesia,block voltage gated sodium channels in a reversible manner
